ChEMBL document CHEMBL1129977, “Antitumor agents. 172. Synthesis and biological evaluation of novel deacetamidothiocolchicin-7-ols and ester analogs as antitubulin agents” (J Med Chem, 1997)

Columns and labels:
[1] = system: CA46; test: Inhibits the growth of the human Burkitt lymphoma CA46 cell; assay type: functional, cell-based
[2] = target: Tubulin alpha chain (Sus scrofa) (UniProt P02550); details: at 5 µM
[3] = target: Tubulin; test: Inhibition of Tubulin polymerization after 20 minutes of administration at 30 degree Centigrade; assay type: functional, organism-based
[4] = target: Tubulin alpha chain (Sus scrofa) (UniProt P02550); test: Binding affinity of [3H]- colchicine (5.0 uM) to tubulin (1.0 uM, 0.1 mg/mL) was evaluated at concentration of 50 uM

Chain of Tubulin alpha chain (Sus scrofa) (P02550 whole entry, looked up): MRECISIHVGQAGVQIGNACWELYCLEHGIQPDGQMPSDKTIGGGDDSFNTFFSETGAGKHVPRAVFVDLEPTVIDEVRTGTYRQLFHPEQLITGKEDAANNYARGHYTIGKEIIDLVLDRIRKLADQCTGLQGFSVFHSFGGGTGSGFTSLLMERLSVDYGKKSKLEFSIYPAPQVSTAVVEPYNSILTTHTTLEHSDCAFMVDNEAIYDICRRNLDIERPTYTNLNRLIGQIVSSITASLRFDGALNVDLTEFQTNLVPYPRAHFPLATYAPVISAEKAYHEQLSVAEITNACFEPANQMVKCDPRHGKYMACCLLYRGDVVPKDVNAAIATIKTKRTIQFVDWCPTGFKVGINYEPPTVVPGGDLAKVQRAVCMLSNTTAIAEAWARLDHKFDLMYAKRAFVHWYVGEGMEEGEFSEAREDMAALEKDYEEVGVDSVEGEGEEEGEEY

| SMILES | inhibition [2] [%] | IC50 [3] [µM] | inhibition [4] [%] | IC50 [1] [µM] |
| --- | --- | --- | --- | --- |
| COc1cc2c(c(OC)c1OC)-c1ccc(SC)c(=O)cc1[C@H](OC(=O)C13CCC(C)(C(=O)O1)C3(C)C)CC2 (some centres undefined) |  | 17 |  |  |
| COc1cc2c(c(OC)c1OC)-c1ccc(SC)c(=O)cc1[C@@H](OC(=O)c1cccnc1)CC2 | 65 | 0.76 |  | 27 |
| COc1cc2c(c(OC)c1OC)-c1ccc(SC)c(=O)cc1C(OC(=O)c1ccncc1)CC2 (centres undefined) [listing 1 of 2 here] |  | 0.97 |  |  |
| COc1cc2c(c(OC)c1OC)-c1ccc(SC)c(=O)cc1C(=O)CC2 [THIOCOLCHICONE] | 70 | 0.76 |  | 18 |
| COc1cc2c(c(OC)c1OC)-c1ccc(SC)c(=O)cc1C(OC(=O)c1ccncc1)CC2 (centres undefined) [listing 2 of 2 here] |  | 1.1 |  |  |
| COc1cc2c(c(OC)c1OC)-c1ccc(SC)c(=O)cc1C(OC(=O)c1cccnc1)CC2 (centres undefined) |  | 0.88 |  |  |
| COc1cc2c(c(OC)c1OC)-c1ccc(SC)c(=O)cc1[C@@H](OC(=O)C13CCC(C)(C(=O)O1)C3(C)C)CC2 (some centres undefined) |  | 1.4 |  |  |

The next lines start with results.

| inhibition [2] [%] | IC50 [3] [µM] | inhibition [4] [%] | SMILES | IC50 [1] [µM] |
| --- | --- | --- | --- | --- |
| 85 |  |  | COc1cc2c(c(OC)c1OC)-c1ccc(SC)c(=O)cc1[C@@H](O)CC2 | 2.8 |
| 16 |  | 73 | COc1cc2c(c(OC)c1OC)-c1ccc(SC)c(=O)cc1[C@H](O)CC2 |  |
| 11 |  | 74 | COc1cc2c(c(OC)c1OC)-c1ccc(SC)c(=O)cc1[C@H](OC(C)=O)CC2 | 40 |
| 79 |  |  | COc1cc2c(c(OC)c1OC)-c1ccc(SC)c(=O)cc1[C@@H](OC(C)=O)CC2 | 3.4 |
|  | 1.5 |  | CCCC(=O)OC1CCc2cc(OC)c(OC)c(OC)c2-c2ccc(SC)c(=O)cc21 (centres undefined) |  |
| 66 | 0.85 |  | CCCC(=O)O[C@H]1CCc2cc(OC)c(OC)c(OC)c2-c2ccc(SC)c(=O)cc21 | 29 |
| 69 | 0.56 |  | COc1cc2c(c(OC)c1OC)-c1ccc(SC)c(=O)cc1[C@@H](OC(=O)c1ccncc1)CC2 | 2.8 |
|  | 1.1 |  | COc1cc2c(c(OC)c1OC)-c1ccc(SC)c(=O)cc1C(Br)CC2 (centres undefined) |  |
|  | 1.4 |  | COc1cc2c(c(OC)c1OC)-c1ccc(SC)c(=O)cc1C(OC(=O)c1ccccc1)CC2 (centres undefined) |  |
